Laboratory results: ChEMBL document CHEMBL4418265, “Piperidinylpyrazolopyridine derivatives” (2016)

Test system: Cynomolgus monkey
Assay: Increase in HDL-C level in cynomolgus monkey plasma at 10 mg/kg, po administered as single dose measured after 1 or 7 days by HPLC method
Format: functional, Macaca fascicularis

O=C1CC(O)(C(F)(F)F)c2c(C3CCN(c4ccc(OC(F)F)cc4)CC3)n[nH]c2N1 (single isomer, unassigned)
Activity: 644%
